For test [1], the system named is airway smooth muscle of mouse tracheal slices, acetylcholine-induced contraction. The test can be described thus: ACh-induced contraction of mouse tracheal slices (tissue bath). It counts as cell-based, C57BL/6N mice. The text has this: Male and female C57BL/6N mice (Charles River, Sulzfeld, Germany, and own breeding at the Institute of Pharmaceutical and Medicinal Chemistry, University of Münster, Germany) were housed under standard conditions. Animal care followed the rules of German laws (Az. 53.5.32.7.1/MS-12668, Health and Veterinary Office Münster, Germany). The mice were sacrificed using CO2. A Mayflower horizontal tissue bath (Hugo Sachs Elektronik, Germany) was used to measure contractions. Murine tracheal slices of 3 mm were placed in the 5 mL tissue bath at a preload of 0.2 cN. Krebs–Henseleit buffer (37 °C) was continuously gassed (O2:CO2 95:5). Drosera dry extract (0.5 mg/mL) was solved in Krebs–Henseleit buffer containing 1 % DMSO (DE). DFA was obtained as described above. […] Control solutions contained equal amounts of DMSO depending on the respective test compound. Experiments were started after an equilibration time of 60 min. Tracheal tension was measured isometrically (force transducer F10 Type 375, amplifier TAM-A Type 705/1, evaluation software HSE ACAD 2.0, Harvard Apparatus GmbH, March-Hugstetten, Germany). […] Test solutions were added 10 min before the next ACh bolus. When using a high potassium solution (60 mM K^+), NaCl concentration was reduced to maintain osmolarity. At least 3 K^+-induced contractions (each 20 min) were averaged and taken as control contraction. The maximal contraction represents the highest value, while the plateau (plat.) was calculated in minutes 19–20.

Test [2] has as its system ciliated tracheal epithelium cells. The test can be described thus: Ciliary beat frequency (CBF) of murine tracheal slices. It counts as cell-based, C57BL/6N mice. The note with it: for CBFRatio (related to CBFBasal): mean ± SD. The method, then: Male and female C57BL/6N mice (Charles River, Sulzfeld, Germany, and own breeding at the Institute of Pharmaceutical and Medicinal Chemistry, University of Münster, Germany) were housed under standard conditions. Animal care followed the rules of German laws (Az. 53.5.32.7.1/MS-12668, Health and Veterinary Office Münster, Germany). The mice were sacrificed using CO2. Murine tracheal explants were placed in LHC-9 medium (Invitrogen, CA, USA), cut into 0.5 mm slices and stored at 37 °C and an atmosphere of 5% CO2. The medium was changed every 3 days. CBF was measured up to 7 days after dissection. Slices were placed in a 0.7 mL perfusion chamber at 37 °C and perfused with Krebs–Henseleit buffer (1 mL/min). The tissue bath was located at an inverted Nikon Eclipse Ti2 microscope (Nikon GmbH, Düsseldorf, Germany) with a 100× oil objective. Drosera dry extract (0.2 mg/mL) was solved in Krebs–Henseleit buffer containing 0.3% DMSO (DE). The amount of DMSO was not exceeding 0.3%; as for this concentration, no effects on CBF were reported. DFA was prepared as described above. […] 2″-O-Galloylhyperoside, ATP and salbutamol were solved without DMSO. In case DMSO was added, all test solutions of one experiment contained the same amount of DMSO. […] Videos were captured and analyzed by the SAVA software (Ammons Engineering, Clio, MI, USA). Ciliated cells exerted baseline frequencies in a range of 5 to 20 Hz, in agreement with the literature. Data were normalized to values of the last 5 min before changing to a test solution (CBFbasal), and effects on ciliary beating were expressed as a ratio (CBFRatio).

A further test addresses T1, PDE1A (Homo sapiens, UniProt P54750).
T1 construct: purchased Biomol (Hamburg, Germany) #60310
The test can be described thus: PDE1A inhibitor assay (fluorescence polarization, cell-free). Type of test: biochemical. The note with it: for IC50: cell-free, duplicates, 1% DMSO, CI = confidence interval. The procedure:
The activity of PDE4D and PDE1A was measured with assay kits #60345 and #60310 from Biomol (Hamburg, Germany). Assays were based on fluorescence polarization using fluorescein amidites-labeled cAMP and were performed according to the manufacturer’s instructions. Samples were recorded as duplicates in a 96-well plate containing equal amounts of DMSO (1%). The fluorescence polarization was measured at excitation wavelengths between 480 and 516 nm and emission wavelengths between 530 and 540 nm by using the plate reader CLARIOstar (BMG Labtech, Ortenberg, Germany). The IC50 values were calculated by a fitting of sigmoidal dose–response curves (variable slope) with GraphPad Prism version 3.00 for Windows (GraphPad, San Diego, CA, USA).
A general note: In fluorescence polarisation assays a small probe gives low polarisation when free and higher when bound to something large.

Another test addresses T2, PDE4D (Homo sapiens, UniProt Q08499).
T2 construct: purchased Biomol (Hamburg, Germany) #60345
The test can be described thus: PDE4D inhibitor assay (fluorescence polarization, cell-free). It counts as biochemical. The note with it: for IC50: cell-free, duplicates, 1% DMSO, CI = confidence interval. The method, then:
Assays were based on fluorescence polarization using fluorescein amidites-labeled cAMP and were performed according to the manufacturer’s instructions. Samples were recorded as duplicates in a 96-well plate containing equal amounts of DMSO (1%). […] The IC50 values were calculated by a fitting of sigmoidal dose–response curves (variable slope) with GraphPad Prism version 3.00 for Windows (GraphPad, San Diego, CA, USA).

For another test, the system named is guinea-pig ileum. The arrangement: method as in PMID 11933852. The following applies: 10 µM; cited from earlier work.

This is an account of results in PMC9572773, “Effects of Extracts and Flavonoids from Drosera rotundifolia L. on Ciliary Beat Frequency and Murine Airway Smooth Muscle” (Molecules, 2022).

For orientation: IC50 means the concentration that gives 50% inhibition. Low readings indicate greater potency in that assay, high ones weaker potency in that assay.

T1 sequence (P54750 whole entry): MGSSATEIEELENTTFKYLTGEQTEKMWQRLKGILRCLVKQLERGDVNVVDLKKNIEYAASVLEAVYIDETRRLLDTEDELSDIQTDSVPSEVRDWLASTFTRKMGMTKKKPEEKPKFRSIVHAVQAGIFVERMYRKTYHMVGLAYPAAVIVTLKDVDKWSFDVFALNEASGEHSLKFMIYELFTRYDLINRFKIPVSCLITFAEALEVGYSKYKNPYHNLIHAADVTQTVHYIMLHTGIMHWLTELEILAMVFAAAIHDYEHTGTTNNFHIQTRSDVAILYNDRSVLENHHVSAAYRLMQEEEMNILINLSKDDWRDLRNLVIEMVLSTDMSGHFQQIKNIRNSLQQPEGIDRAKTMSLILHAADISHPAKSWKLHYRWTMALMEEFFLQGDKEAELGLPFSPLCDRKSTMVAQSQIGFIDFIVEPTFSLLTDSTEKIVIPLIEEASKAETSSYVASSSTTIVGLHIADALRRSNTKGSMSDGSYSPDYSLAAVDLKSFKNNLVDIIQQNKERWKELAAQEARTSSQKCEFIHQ
T2 sequence (Q08499 303-809 limits assumed): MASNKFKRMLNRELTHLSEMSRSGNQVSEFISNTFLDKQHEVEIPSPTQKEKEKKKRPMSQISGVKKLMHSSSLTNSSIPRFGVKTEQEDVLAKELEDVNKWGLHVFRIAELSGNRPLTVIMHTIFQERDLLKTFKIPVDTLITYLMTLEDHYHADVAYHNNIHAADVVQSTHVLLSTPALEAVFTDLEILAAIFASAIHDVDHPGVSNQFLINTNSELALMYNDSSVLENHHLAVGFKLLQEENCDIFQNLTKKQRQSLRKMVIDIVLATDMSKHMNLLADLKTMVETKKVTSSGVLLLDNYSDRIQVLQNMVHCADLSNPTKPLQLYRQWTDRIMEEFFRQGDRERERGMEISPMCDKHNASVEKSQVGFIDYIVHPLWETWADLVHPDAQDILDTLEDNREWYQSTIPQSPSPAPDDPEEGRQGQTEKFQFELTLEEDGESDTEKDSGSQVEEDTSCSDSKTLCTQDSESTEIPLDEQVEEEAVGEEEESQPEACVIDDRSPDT

`O=C(O[C@H]1[C@H](Oc2c(-c3ccc(O)c(O)c3)oc3cc(O)cc(O)c3c2=O)O[C@H](CO)[C@H](O)[C@@H]1O)c1cc(O)c(O)c(O)c1` [2″-O-galloylhyperoside]: in test [1] (500 µM, 10 min pretreatment, 100 µM ACh), the “ACh-induced contraction, % of control” value was 61 ± 21%. In test [1] (750 and 1000 µM, 100 µM ACh), the “ACh-induced contraction compared with the effect at 500 µM” value is “did not significantly differ”. The “CBFRatio (related to CBFBasal)” value in test [2] (300 µM, minutes 10 to 15) was found to be 1.11 ± 0.04. In addition, the IC50 at PDE1A is 3 µM; against PDE4D, 1.1 µM.
In the case of `COCc1nc2c([nH]1)c(=O)n(C)c(=O)n2CC(C)C` [8MmIBMX, 8-methoxymethyl-IBMX], the “increase of CBF on average” value in test [2] (100 µM) is 20%. For the same molecule, the “CBFRatio (related to CBFBasal)” value in test [2] (100 µM, minutes 10 to 15) was 1.2 ± 0.1. Further, on PDE1A, the half-maximal inhibitory concentration (IC50) came out at 12 µM. The “PDE4D activity (% of control without inhibitor)” value on PDE4D (50 µM) was determined as 77 ± 6%; at PDE4D (100 µM) it was 70 ± 2%.
Consider `Nc1ncnc2c1ncn2[C@@H]1O[C@H](COP(=O)(O)OP(=O)(O)OP(=O)(O)O)[C@@H](O)[C@H]1O` [ATP], for which, in test [2] (30 µM, minutes 10 to 15), the “CBFRatio (related to CBFBasal)” value came out at 1.4 ± 0.2.
In the case of `O=c1c(O[C@@H]2O[C@H](CO)[C@H](O)[C@H](O)[C@H]2O)c(-c2ccc(O)c(O)c2)oc2cc(O)cc(O)c12` [Hyperoside, hyperoside], in test [1] (50 to 750 µM, all concentrations tested, 100 µM ACh), the “ACh-mediated contraction force, % of control” value is given as “approximately 80%”. In test [1] (maximal effect), the “maximal reduction of ACh-induced contraction force” value is on record as 20–25%. Also, the concentration for half-maximal inhibition (IC50) on PDE4D was 3 µM.
For `O=c1c(O)c(-c2ccc(O)c(O)c2)oc2cc(O)cc(O)c12` [quercetin], the “abrogation of ACh-induced contraction on ASM” value in test [1] (10 µM) is “failed to abrogate”. Moreover, the activity at 25 µM in test [1] (Mus musculus, 25 µM, 10 min pretreatment, read-out: effect of 100 µM ACh (contraction force, % of control)) worked out at 74 ± 11%. Moreover, the activity at 50 µM in test [1] (Mus musculus, 50 µM, 10 min pretreatment, read-out: effect of 100 µM ACh (contraction force, % of control)) came out at 63 ± 7%. Besides, the activity at 100 µM in test [1] (Mus musculus, 100 µM, 10 min pretreatment, read-out: effect of 100 µM ACh (contraction force, % of control)) was found to be 21 ± 2%. In addition, in test [2] (30 µM, minutes 10 to 15), the “CBFRatio (related to CBFBasal)” value is reported as 1.2 ± 0.2. Also, the IC50 against PDE1A worked out at 4 µM; against PDE4D it was 2 µM. Moreover, the “inhibition of carbachol-induced contractions” value with guinea-pig ileum was “more than 50%”.
Regarding `COc1ccc(C2CNC(=O)C2)cc1OC1CCCC1` (stereo not drawn) [rolipram], the “increase of CBF on average” value in test [2] (30 µM) came out at 20%. Also, the “CBFRatio (related to CBFBasal)” value in test [2] (30 µM, minutes 10 to 15) worked out at 1.2 ± 0.2. Moreover, the remaining activity at 100 µM on PDE1A (100 µM, read-out: PDE1A activity (% of control without inhibitor)) was 98.2 ± 0.6%. Besides, the remaining activity at 300 µM at PDE1A (300 µM, read-out: PDE1A activity (% of control without inhibitor)) came to 92 ± 2%.
Take `CC(C)(C)NCC(O)c1ccc(O)c(CO)c1` (stereo not drawn) [salbutamol]: in test [2] (50 µM, minutes 5 to 10), the “CBFRatio (related to CBFBasal)” value is recorded as 1.4 ± 0.3.
